# Laboratory results: publication PMC5218480 (PLoS ONE, 2017)
# System: MV-4-11 cells
# Experiment: Gene expression microarray analysis (Affymetrix PrimeView) and GSEA
# Assay type: cell-based, human
# Design: RFU PODN (11730768_x_at) / Fold change /veh PODN (11730768_x_at) / RFU LINC00158 (11744669_a_at) / Fold change /veh LINC00158 (11744669_a_at) / RFU DUSP10 (11751237_a_at) / Fold change /veh DUSP10 (11751237_a_at) / RFU ID3 (11757404_x_at) / Fold change /veh ID3 (11757404_x_at) / RFU PLEKHG5 (11737974_s_at) / Fold change /veh PLEKHG5 (11737974_s_at) / RFU LRRC4B (11730491_at) / Fold change /veh LRRC4B (11730491_at) / RFU GIMAP4 (11747438_a_at) / Fold change /veh GIMAP4 (11747438_a_at) / RFU KRT8 (11758183_x_at) / Fold change /veh KRT8 (11758183_x_at) / RFU CNN1 (11734310_a_at) / Fold change /veh CNN1 (11734310_a_at) / RFU VPS37D (11726825_at) / Fold change /veh VPS37D (11726825_at) / RFU C10orf10 (11716522_x_at) / Fold change /veh C10orf10 (11716522_x_at) / RFU KIR2DL2 /// KIR2DL4 /// KIR2DL5A /// KIR2DL5B /// KIR2DS1 /// KIR2DS2 /// KIR2DS3 /// KIR2DS4 /// KIR3DL3 /// KIR3DL3 /// KIR3DS1 (11738374_at) / Fold change /veh KIR2DL2 /// KIR2DL4 /// KIR2DL5A /// KIR2DL5B /// KIR2DS1 /// KIR2DS2 /// KIR2DS3 /// KIR2DS4 /// KIR3DL3 /// KIR3DL3 /// KIR3DS1 (11738374_at) / RFU C1QL1 (11718748_at) / Fold change /veh C1QL1 (11718748_at) / RFU TMPRSS4 (11747572_a_at) / Fold change /veh TMPRSS4 (11747572_a_at) / RFU HAMP (11756126_x_at) / Fold change /veh HAMP (11756126_x_at) / RFU RNFT2 (11725882_a_at) / Fold change /veh RNFT2 (11725882_a_at) / RFU NR4A2 (11747474_a_at) / Fold change /veh NR4A2 (11747474_a_at) / RFU ABCC12 (11746883_a_at) / Fold change /veh ABCC12 (11746883_a_at) / RFU TMEM136 (11760407_x_at) / Fold change /veh TMEM136 (11760407_x_at) / RFU CLDN22 /// WWC2 (11732394_at) / Fold change /veh CLDN22 /// WWC2 (11732394_at) / RFU HLA-DPB1 (11760878_x_at) / Fold change /veh HLA-DPB1 (11760878_x_at) / RFU SPINT1 (11716480_a_at) / Fold change /veh SPINT1 (11716480_a_at) / RFU GAP43 (11754022_s_at) / Fold change /veh GAP43 (11754022_s_at) / RFU A4GNT (11735810_at) / Fold change /veh A4GNT (11735810_at) / RFU PRB3 (11715151_x_at) / Fold change /veh PRB3 (11715151_x_at) / RFU TUBB4B (11761932_at) / Fold change /veh TUBB4B (11761932_at) / RFU CAPN14 (11732068_a_at) / Fold change /veh CAPN14 (11732068_a_at) / RFU TMCC2 (11721928_a_at) / Fold change /veh TMCC2 (11721928_a_at) / RFU IRGQ (11745062_a_at) / Fold change /veh IRGQ (11745062_a_at) / RFU FAM174B (11720279_a_at) / Fold change /veh FAM174B (11720279_a_at) / RFU TMPRSS4 (11748680_a_at) / Fold change /veh TMPRSS4 (11748680_a_at) / RFU FAM212B (11763350_a_at) / Fold change /veh FAM212B (11763350_a_at) / RFU PLEKHG5 (11743358_a_at) / Fold change /veh PLEKHG5 (11743358_a_at) / RFU ZSCAN30 (11745921_a_at) / Fold change /veh ZSCAN30 (11745921_a_at) / RFU CMKLR1 (11741424_a_at) / Fold change /veh CMKLR1 (11741424_a_at) / RFU LOC101060620 /// MAPK8IP1 (11723275_at) / Fold change /veh LOC101060620 /// MAPK8IP1 (11723275_at) / RFU SPTSSB (11747773_x_at) / Fold change /veh SPTSSB (11747773_x_at) / RFU PRSS12 (11739890_at) / Fold change /veh PRSS12 (11739890_at) / RFU BIN1 (11741810_x_at) / Fold change /veh BIN1 (11741810_x_at) / RFU WNT11 (11732464_a_at) / Fold change /veh WNT11 (11732464_a_at) / RFU C10orf10 (11716521_a_at) / Fold change /veh C10orf10 (11716521_a_at) / RFU C5orf56 (11738089_at) / Fold change /veh C5orf56 (11738089_at) / RFU CYB561 (11721691_x_at) / Fold change /veh CYB561 (11721691_x_at) / RFU ANKRD19P (11752326_a_at) / Fold change /veh ANKRD19P (11752326_a_at) / RFU OR2T12 /// OR2T33 /// OR2T8 (11738714_s_at) / Fold change /veh OR2T12 /// OR2T33 /// OR2T8 (11738714_s_at) / RFU VCAN (11748164_a_at) / Fold change /veh VCAN (11748164_a_at) / RFU JSRP1 (11732532_at) / Fold change /veh JSRP1 (11732532_at) / RFU KRTAP10-11 (11738290_x_at) / Fold change /veh KRTAP10-11 (11738290_x_at) / RFU MYO3A (11730013_a_at) / Fold change /veh MYO3A (11730013_a_at) / RFU EBF3 (11725865_a_at) / Fold change /veh EBF3 (11725865_a_at) / RFU CAMK2N1 (11719241_x_at) / Fold change /veh CAMK2N1 (11719241_x_at) / RFU C5orf56 (11738088_a_at) / Fold change /veh C5orf56 (11738088_a_at) / RFU OLFML3 (11715873_a_at) / Fold change /veh OLFML3 (11715873_a_at) / RFU LOC100653217 /// NTM (11731650_a_at) / Fold change /veh LOC100653217 /// NTM (11731650_a_at) / RFU MAPK11 (11762145_a_at) / Fold change /veh MAPK11 (11762145_a_at) / RFU FIZ1 (11724087_x_at) / Fold change /veh FIZ1 (11724087_x_at) / RFU OASL (11726364_x_at) / Fold change /veh OASL (11726364_x_at) / RFU SOX15 (11748057_x_at) / Fold change /veh SOX15 (11748057_x_at) / RFU CD79A (11719716_a_at) / Fold change /veh CD79A (11719716_a_at) / RFU HIST1H1D (11736915_at) / Fold change /veh HIST1H1D (11736915_at) / RFU CASKIN2 (11723855_a_at) / Fold change /veh CASKIN2 (11723855_a_at) / RFU LOC730098 (11760151_x_at) / Fold change /veh LOC730098 (11760151_x_at) / RFU OR4N2 (11742367_at) / Fold change /veh OR4N2 (11742367_at) / RFU PRRT2 (11749266_a_at) / Fold change /veh PRRT2 (11749266_a_at) / RFU SNX32 (11753110_a_at) / Fold change /veh SNX32 (11753110_a_at) / RFU CDHR5 (11726645_a_at) / Fold change /veh CDHR5 (11726645_a_at) / RFU RCAN1 (11760418_a_at) / Fold change /veh RCAN1 (11760418_a_at) / RFU FAM167A (11723789_a_at) / Fold change /veh FAM167A (11723789_a_at) / RFU FAM26E (11764081_at) / Fold change /veh FAM26E (11764081_at) / RFU ISYNA1 (11749810_s_at) / Fold change /veh ISYNA1 (11749810_s_at) / RFU ACY1 (11761880_at) / Fold change /veh ACY1 (11761880_at) / RFU 11764098_at / Fold change /veh 11764098_at / RFU SAMD14 (11745864_x_at) / Fold change /veh SAMD14 (11745864_x_at) / RFU NPB (11741838_a_at) / Fold change /veh NPB (11741838_a_at) / RFU TMPRSS6 (11731388_a_at) / Fold change /veh TMPRSS6 (11731388_a_at) / RFU KRTAP10-2 (11738614_at) / Fold change /veh KRTAP10-2 (11738614_at) / RFU ARHGAP8 /// PRR5-ARHGAP8 (11727945_x_at) / Fold change /veh ARHGAP8 /// PRR5-ARHGAP8 (11727945_x_at) / RFU KRTAP5-7 /// NADSYN1 (11734609_at) / Fold change /veh KRTAP5-7 /// NADSYN1 (11734609_at) / RFU RASL12 (11751679_a_at) / Fold change /veh RASL12 (11751679_a_at) / RFU CDKN2B (11736163_a_at) / Fold change /veh CDKN2B (11736163_a_at) / RFU PRF1 (11729649_at) / Fold change /veh PRF1 (11729649_at) / RFU, ZNF638 /// ZNF638-IT1 / Fold change vs veh, ZNF638 /// ZNF638-IT1 / RFU, PANK3 / Fold change vs veh, PANK3 / RFU, SH3YL1 / Fold change vs veh, SH3YL1 / RFU, ZEB2 / Fold change vs veh, ZEB2 / RFU, NRIP1 / Fold change vs veh, NRIP1 / RFU, PTTG1IP / Fold change vs veh, PTTG1IP / RFU, CAPN2 / Fold change vs veh, CAPN2 / RFU, MED14 / Fold change vs veh, MED14 / RFU, SNORA58 / Fold change vs veh, SNORA58 / RFU, C1orf63 / Fold change vs veh, C1orf63 / RFU, LRRFIP1 / Fold change vs veh, LRRFIP1 / RFU, NDUFAF7 / Fold change vs veh, NDUFAF7 / RFU, SLC12A2 / Fold change vs veh, SLC12A2 / RFU, IBTK / Fold change vs veh, IBTK / RFU, ESF1 / Fold change vs veh, ESF1 / Fold change vs veh, TMEM50B / RFU, TAOK1 / Fold change vs veh, TAOK1 / RFU, ACBD3 / Fold change vs veh, ACBD3 / RFU, TMA16 / Fold change vs veh, TMA16 / RFU, RWDD3 / Fold change vs veh, RWDD3 / RFU, BCAT1 / Fold change vs veh, BCAT1 / RFU, EDEM3 / Fold change vs veh, EDEM3 / RFU, TMEM33 / Fold change vs veh, TMEM33 / RFU, WDR75 / Fold change vs veh, WDR75 / RFU, AHCTF1 / Fold change vs veh, AHCTF1 / RFU, TFRC / Fold change vs veh, TFRC / RFU, ZDHHC17 / Fold change vs veh, ZDHHC17 / RFU, NOM1 / Fold change vs veh, NOM1 / RFU, ARL8B / Fold change vs veh, ARL8B / RFU, ZBTB11 / Fold change vs veh, ZBTB11 / RFU, TAMM41 / Fold change vs veh, TAMM41 / RFU, KIAA1704 /// LOC100996395 / Fold change vs veh, KIAA1704 /// LOC100996395 / RFU, ING1 / Fold change vs veh, ING1 / RFU, TRMT61B / Fold change vs veh, TRMT61B / RFU, FUBP3 / Fold change vs veh, FUBP3 / RFU, TP53 / Fold change vs veh, TP53 / RFU, TNKS2 / Fold change vs veh, TNKS2 / RFU, ZFP14 / Fold change vs veh, ZFP14 / RFU, ACTR2 / Fold change vs veh, ACTR2 / RFU, PPP3R1 / Fold change vs veh, PPP3R1 / RFU, PIK3R1 / Fold change vs veh, PIK3R1 / RFU, HNRNPA1 / Fold change vs veh, HNRNPA1 / RFU, RNF170 / Fold change vs veh, RNF170 / RFU, ZNF28 / Fold change vs veh, ZNF28 / RFU, RNGTT / Fold change vs veh, RNGTT / RFU, OGT / Fold change vs veh, OGT / RFU, BRD1 / Fold change vs veh, BRD1 / RFU, MARS / Fold change vs veh, MARS / RFU, ZNF655 / Fold change vs veh, ZNF655 / RFU, FAHD1 / Fold change vs veh, FAHD1 / RFU, BDP1 / Fold change vs veh, BDP1 / RFU, LRRCC1 / Fold change vs veh, LRRCC1 / RFU, ARID1A / Fold change vs veh, ARID1A / RFU, ZNF146 / Fold change vs veh, ZNF146 / RFU, ZNF330 / Fold change vs veh, ZNF330 / RFU, GPN3 / Fold change vs veh, GPN3 / RFU, C9orf123 / Fold change vs veh, C9orf123 / RFU, N4BP2L2 / Fold change vs veh, N4BP2L2 / RFU, ARFIP1 / Fold change vs veh, ARFIP1 / RFU, FAM179B / Fold change vs veh, FAM179B / RFU, BCL10 / Fold change vs veh, BCL10 / RFU, UHRF1BP1L / Fold change vs veh, UHRF1BP1L / RFU, BET1 / Fold change vs veh, BET1 / RFU, CNOT2 / Fold change vs veh, CNOT2 / RFU, ZNF268 / Fold change vs veh, ZNF268 / Fold change vs veh, ZNF507 / RFU, DGCR2 / Fold change vs veh, DGCR2 / RFU, WDSUB1 / Fold change vs veh, WDSUB1 / Fold change vs veh, HSP90B1 /// MIR3652 / RFU, ADSS / Fold change vs veh, ADSS / RFU, GK / Fold change vs veh, GK / RFU, ZNF148 / Fold change vs veh, ZNF148 / RFU, TAF9 / Fold change vs veh, TAF9 / RFU, SLC1A5 / Fold change vs veh, SLC1A5 / RFU, SLMO2 / Fold change vs veh, SLMO2 / RFU, ABCC4 / Fold change vs veh, ABCC4 / RFU, LOC101060439 /// RAP1B / Fold change vs veh, LOC101060439 /// RAP1B / RFU, RFX7 / Fold change vs veh, RFX7 / RFU, GTPBP10 / Fold change vs veh, GTPBP10 / RFU, CNEP1R1 / Fold change vs veh, CNEP1R1 / RFU, BIVM-ERCC5 /// ERCC5 / Fold change vs veh, BIVM-ERCC5 /// ERCC5 / RFU, ILF3 / Fold change vs veh, ILF3 / RFU 11762660_at / Fold change /veh 11762660_at / RFU VCAN (11757783_s_at) / Fold change /veh VCAN (11757783_s_at) / RFU DDX43 (11728927_at) / Fold change /veh DDX43 (11728927_at) / RFU KRT8 (11758188_x_at) / Fold change /veh KRT8 (11758188_x_at) / RFU NKD1 (11759106_at) / Fold change /veh NKD1 (11759106_at) / RFU SRD5A1 (11742802_a_at) / Fold change /veh SRD5A1 (11742802_a_at) / RFU TPSAB1 /// TPSB2 (11721975_s_at) / Fold change /veh TPSAB1 /// TPSB2 (11721975_s_at) / RFU GSTM3 (11746129_a_at) / Fold change /veh GSTM3 (11746129_a_at) / RFU IL23R (11737362_x_at) / Fold change /veh IL23R (11737362_x_at) / RFU TMEM51 (11727254_a_at) / Fold change /veh TMEM51 (11727254_a_at) / RFU PIWIL2 (11732686_x_at) / Fold change /veh PIWIL2 (11732686_x_at) / RFU ORM1 (11744905_x_at) / Fold change /veh ORM1 (11744905_x_at) / RFU CCDC152 (11743942_at) / Fold change /veh CCDC152 (11743942_at) / RFU ECM1 (11717891_a_at) / Fold change /veh ECM1 (11717891_a_at) / RFU IL23R (11748794_a_at) / Fold change /veh IL23R (11748794_a_at) / RFU TNFAIP8L3 (11732012_x_at) / Fold change /veh TNFAIP8L3 (11732012_x_at) / RFU MBOAT4 (11741988_at) / Fold change /veh MBOAT4 (11741988_at) / RFU 11764193_at / Fold change /veh 11764193_at / RFU TMEM53 (11763286_at) / Fold change /veh TMEM53 (11763286_at) / RFU MAGEB2 (11727129_at) / Fold change /veh MAGEB2 (11727129_at) / RFU TMEM200A (11744735_a_at) / Fold change /veh TMEM200A (11744735_a_at) / RFU CCDC152 (11751479_a_at) / Fold change /veh CCDC152 (11751479_a_at) / RFU FAM211A (11726209_a_at) / Fold change /veh FAM211A (11726209_a_at) / RFU RGS16 (11746705_a_at) / Fold change /veh RGS16 (11746705_a_at) / RFU VCAN (11755009_s_at) / Fold change /veh VCAN (11755009_s_at) / RFU RHOB (11743442_s_at) / Fold change /veh RHOB (11743442_s_at) / RFU RGS16 (11720943_a_at) / Fold change /veh RGS16 (11720943_a_at) / RFU RGS16 (11720944_at) / Fold change /veh RGS16 (11720944_at) / RFU, VPS4B / Fold change vs veh, VPS4B / RFU, CREB1 / Fold change vs veh, CREB1 / RFU, DNAJC13 / Fold change vs veh, DNAJC13 / RFU, GNAQ / Fold change vs veh, GNAQ / RFU, CDK5R1 / Fold change vs veh, CDK5R1 / RFU, ZRANB3 / Fold change vs veh, ZRANB3 / RFU, CUL4A / Fold change vs veh, CUL4A / RFU, CCNY / Fold change vs veh, CCNY / RFU, UFL1 / Fold change vs veh, UFL1 / RFU, COG3 / Fold change vs veh, COG3 / RFU, DIAPH2 / Fold change vs veh, DIAPH2 / RFU, SKA2 / Fold change vs veh, SKA2 / RFU, AFF3 / Fold change vs veh, AFF3 / RFU, LMF1 / Fold change vs veh, LMF1 / RFU, IPO11 / Fold change vs veh, IPO11 / RFU, DFFB / Fold change vs veh, DFFB / RFU, FOXP1 / Fold change vs veh, FOXP1 / RFU, CARD8 / Fold change vs veh, CARD8 / RFU, STRN3 / Fold change vs veh, STRN3 / RFU, ADK / Fold change vs veh, ADK / RFU, RASSF2 / Fold change vs veh, RASSF2 / RFU, WIPF1 / Fold change vs veh, WIPF1 / RFU, LARP1B / Fold change vs veh, LARP1B / RFU, RASA1 / Fold change vs veh, RASA1 / RFU, RB1 / Fold change vs veh, RB1 / RFU, PPFIA1 / Fold change vs veh, PPFIA1 / RFU, MAT2A / Fold change vs veh, MAT2A / RFU, CCT5 / Fold change vs veh, CCT5 / RFU, WDR92 / Fold change vs veh, WDR92 / RFU, CUX1 / Fold change vs veh, CUX1 / RFU, TTC7A / Fold change vs veh, TTC7A / RFU, TMEM135 / Fold change vs veh, TMEM135 / RFU, DEPTOR / Fold change vs veh, DEPTOR / RFU, CPM / Fold change vs veh, CPM / RFU, DNAJB6 / Fold change vs veh, DNAJB6 / RFU, CACNA2D3 / Fold change vs veh, CACNA2D3 / RFU, DTX4 / Fold change vs veh, DTX4 / RFU, TFCP2 / Fold change vs veh, TFCP2 / RFU, GMCL1 /// GMCL1P1 / Fold change vs veh, GMCL1 /// GMCL1P1 / RFU, AEBP2 / Fold change vs veh, AEBP2 / RFU, SNHG1 /// SNORD22 /// SNORD25 /// SNORD26 /// SNORD27 /// SNORD28 /// SNORD29 /// SNORD31 / Fold change vs veh, SNHG1 /// SNORD22 /// SNORD25 /// SNORD26 /// SNORD27 /// SNORD28 /// SNORD29 /// SNORD31 / Fold change (Aza/veh), C12orf56 (ProbeSet 11735607_a_at) / Fold change (ACY-1035/veh), C12orf56 (ProbeSet 11735607_a_at) / Fold change (Aza/veh), FGFR1OP (ProbeSet 11751329_s_at) / Fold change (ACY-1035/veh), FGFR1OP (ProbeSet 11751329_s_at) / Fold change (Aza/veh), VPS36 (ProbeSet 11739960_a_at) / Fold change (ACY-1035/veh), VPS36 (ProbeSet 11739960_a_at) / RFU SYPL1 (11715823_x_at) / Fold change /veh SYPL1 (11715823_x_at) / RFU IGFBP7 (11715501_s_at) / Fold change /veh IGFBP7 (11715501_s_at) / RFU REEP3 (11722064_at) / Fold change /veh REEP3 (11722064_at) / RFU IGLL1 (11728026_x_at) / Fold change /veh IGLL1 (11728026_x_at): dose or concentration left out as unconfirmed
# Conditions: ProbeSet 11728879_at; LIST B
structure (smiles),measurement,value
Nc1ccc(-c2cccs2)cc1NC(=O)c1ccc2c(c1)cc(C1CC1)n2CCN1CCOCC1 [ACY-1035],"RFU, PPP3R1",371.71 RFU
